Measurements taken from US7718768B2, “Biologically active peptide [sequence]” (CMS Peptides Patent Holding Company Limited, priority 2001, dated 2010).
Marks after values point to notes of the source that are not given here. No end group written: not given here.

What was measured:
S180 sarcoma cells = experiment: growth of transplanted S180 sarcoma; format: in vivo, BALB/c mice; conditions: for Tumor inhibition index: versus saline group
Method: (§1) Intraperitoneal injection, once per day. […] Treatment of all groups with testing substance lasted for 30 days or until the animal died unless otherwise specified.
Stock S180 sarcoma cells were incubated in DMEM/F12 medium supplemented with 10% fetal bovine serum, 37° C., 5% CO2 for 72 hrs, then washed 3-4 times with Hank's solution at room temperature. Adjust the cell concentration to 1-2×10^9 per liter with Hank's solution. […] The mice were killed by cervical vertebra dislocation. Vigorously growing and non-disrupted tumor masses were harvested and washed clean with sterile saline. The tissue was dispersed in saline to a homogenous cell suspension, in a ratio of 1 g tissue to 4 ml saline. The sarcoma bearing mice model was prepared with an injection of 0.2 ml cell suspension through the armpit. Administration of test substance treatment started as described in section Method 1.
After the phagocytosis index study, the mice were killed by cervical vertebra dislocation. The liver, spleen, and cancer tissue were dissected, blotted dry, and weighed.
2.2 The Tumor Growth Inhibition Index was Calculated According to the Following Formula: Tumor growth inhibition index=(mean tumor weight of control group−mean tumor weight of treatment group)÷mean tumor weight of control group 3.

B16 melanoma cells = experiment: lung metastasis foci of inoculated B16 melanoma cells, postmortem examination; format: in vivo, C57BL/6 mice
Method: Intraperitoneal injection, once per day. […] Treatment of all groups with testing substance lasted for 30 days or until the animal died unless otherwise specified. […] The cell concentration was adjusted to 1×10^5 per ml with Hank's solution and 0.1 ml of the cell suspension was injected via the tail vein into the testing mice to generate the B16 melanoma bearing animal model. Treatment with test substance started as described in section Method 1. […] Postmortum Examination of the Animals was Performed. The Pathological Changes were Recorded, and the Numbers of Melanoma Lung Metastasis Foci were Counted. Results 1. The Effect of Peptide on the Cellular Phagocytosis in BALB/c Mice with Transplanted S180 Sarcoma (Method 2.1)

L1210 leukemia = experiment: survival of mice with transplanted L1210 leukemia; format: in vivo, DBA/2 mice; conditions: for Survival index: versus saline group
Method: as §1
Stock L1210 cells were incubated in DMEM/F12 medium supplemented with 10% fetal bovine serum, 37° C./5% CO2 for 72 hrs, then washed 3-4 times with Hank's solution, and adjusted to 1×10^5 cells per liter. 0.1 ml of the cell suspension was implanted into the abdominal cavity of several healthy DBA mice for 6-8 days. The mice were then killed by cervical vertebra dislocation and their ascitic fluid collected aseptically. The cell concentration of the collected ascitic fluid was adjusted to 1×10^5 per ml with Hank's solution. 0.1 ml of the cell suspension was implanted into each of the testing animal and the survival data of the animals recorded. Treatment started in the testing animals as described in section Method 1. Mean survival day was obtained by the Kaplan-meier method in the Survival option of the SPSS software. If the animal survived longer than the experiment, the survival days was entered as the duration of the experiment. The survival index was calculated according to the following formula: Survival index=(mean survival days of treatment group−mean survival days of control group)÷mean survival days of control group 6. The Effect of Peptides on the Humoral Immunity of C57BL/6 Mice Bearing Transplanted B16 Melanoma, and that on the Metastatic Potential of the Inoculated Melanoma Cells

[1] = body weight of rats fed high nutrition diet (obesity induced by over-feeding); format: in vivo, Sprague-Dawley (SD) rats
Method: Sprague-Dawley (SD) rats, weighing 145±10 g, were supplied by the Center of Experimental Animal of Guangzhou University of Traditional Chinese Medicine, PR China (certificate No.: 2000A019). Peptides were custom synthesized (of L-amino acids origin) by American Peptide Company, Inc., USA, and were diluted to 10 μg/ml in normal saline. The high and normal nutrition diets were prepared in compliance with the guideline for pre-clinical research of anti-obesity drug, issued by SDA (State Drug Administration), PR China^[1].
Healthy rats were randomized into the experiment, positive control, and negative control groups. 10 rats per group, half male and half female. The experiment group of rats was fed with high nutrition diet for 5 weeks with simultaneous intramuscular injection of 300 μg/kg/day peptide, once per day. Positive control group received the same high nutrition diet but placebo saline injection, while negative control group, used to proof successful establishment of obesity model, received normal nutrition diet and placebo saline injection. After 5 weeks treatment, injection was stopped and the same diet was maintained for another 3 weeks. The rats were weighed at once per week interval. Behaviour of the rats was also observed.
The data were presented as mean±standard deviation. Paired t test or single-factor ANOVA was used for inter and intra group comparison. Statistical significance cut-off was at P≦0.05.

[2] = system: Duck Hepatitis B Virus (DHBV); experiment: Chongqing duck hepatitis B model, serum DHBV DNA by dot-blot hybridization; format: in vivo, Chongqing ducks; conditions: CMS001 50 μg/kg/day i.p., lamivudine 50 mg/kg/day oral
[3] = 3 × 10^5 IU/kg i.p. once per day

Work on “Pro Glu Asn Phe (PENF; listed as Sus scrofa) [CMS034]” yielded a Tumor weight (S180 sarcoma cells; 0.5 μg/kg i.p. once per day) of 0.83 ± 0.48 g and a Tumor inhibition index (S180 sarcoma cells; 0.5 μg/kg i.p. once per day) of 35.9%.

For VAPEEHPTLLTEAPLNPK [CMS010], the Tumor weight (S180 sarcoma cells; 500 μg/kg i.p. once per day) was 0.67 ± 0.35 g and the Tumor inhibition index (S180 sarcoma cells; 500 μg/kg i.p. once per day) was 48.4%.

In the case of KAVGHLDDLPGAL [CMS008], the “B16 metastatic foci in the lung, postmortem examination” value (from here on “B16 metastatic foci in the lung”) (B16 melanoma cells; 0.5 μg/kg/day i.p.) is reported as “did not show any sign of existence of B16 metastatic foci in the lung”, the “B16 metastatic foci in the lung” value (B16 melanoma cells; 5 μg/kg/day i.p.) is reported as “did not show any sign of existence of B16 metastatic foci in the lung” and the “B16 metastatic foci in the lung” value (B16 melanoma cells; 50 μg/kg/day i.p.) is reported as “did not show any sign of existence of B16 metastatic foci in the lung”.

For VGMGQKDSY [CMS019], the Survival days (L1210 leukemia; 0.5 μg/kg i.p. once per day) was 21.1 ± 5.8 days and the Survival index (L1210 leukemia; 0.5 μg/kg i.p. once per day) was 26.8%.

“Phe Val Asn Asp (FVND; listed as Sus scrofa) [CMS035]” gave a Tumor weight (S180 sarcoma cells; 5 μg/kg i.p. once per day) of 0.71 ± 0.37 g, a Tumor inhibition index (S180 sarcoma cells; 5 μg/kg i.p. once per day) of 44.6% and a Survival days (L1210 leukemia; 0.5 μg/kg i.p. once per day) of 29.3 ± 15.4 days. The Survival index (L1210 leukemia; 0.5 μg/kg i.p. once per day) was 76.1%.

Work on PSIVGRPRHQGVM [CMS015] yielded a body weight ([1]; Pre-treatment, Female n = 5, 300 μg/kg/day intramuscular) of 129.2 ± 3.3 g, a body weight ([1]; Pre-treatment, Male n = 5, 300 μg/kg/day intramuscular) of 145.6 ± 8.5 g and a body weight ([1]; Week 1, Female, 300 μg/kg/day intramuscular) of 157.8 ± 8.3 g. The body weight ([1]; Week 1, Male, 300 μg/kg/day intramuscular) was 183.8 ± 10.6 g, the body weight ([1]; Week 2, Female, 300 μg/kg/day intramuscular) was 176.0 ± 11.2 g and the body weight ([1]; Week 2, Male, 300 μg/kg/day intramuscular) was 220.6 ± 12.2 g. The body weight ([1]; Week 3, Female, 300 μg/kg/day intramuscular) was 196.0 ± 10.5 g, the body weight ([1]; Week 3, Male, 300 μg/kg/day intramuscular) was 239.0 ± 16.0 g and the body weight ([1]; Week 4, Female, 300 μg/kg/day intramuscular) was 212.0 ± 13.5 g. For the same molecule, the body weight ([1]; Week 4, Male, 300 μg/kg/day intramuscular) was 258.2 ± 18.1 g, the body weight ([1]; Week 5 (last week of injection), Female, 300 μg/kg/day intramuscular) was 221.4 ± 13.2 g and the body weight ([1]; Week 5 (last week of injection), Male, 300 μg/kg/day intramuscular) was 268.8 ± 17.7 g. The body weight ([1]; Week 6 (injection stopped after week 5), Female) was 235.6 ± 16.3 g, the body weight ([1]; Week 6 (injection stopped after week 5), Male) was 299.4 ± 21.2 g and the body weight ([1]; Week 7 (injection stopped after week 5), Female) was 242.2 ± 18.8 g. The body weight ([1]; Week 7 (injection stopped after week 5), Male) was 310.4 ± 25.9 g, the body weight ([1]; Week 8 (injection stopped after week 5), Female) was 252.8 ± 22.5 g and the body weight ([1]; Week 8 (injection stopped after week 5), Male) was 337.4 ± 30.6 g.

For PTTKTYFPHF [CMS001], the “Serum DHBV DNA level” value ([2]; Day 0 (before treatment), Mean ± Standard Deviation) was 21 ± 18 10^3 units, the “Serum DHBV DNA level” value ([2]; Day 7 of treatment) was 11 ± 13 10^3 units and the “Serum DHBV DNA level” value ([2]; Day 14 of treatment) was 20 ± 18 10^3 units. The “Serum DHBV DNA level” value ([2]; Day 21 of treatment) was 14 ± 14 10^3 units, the “Serum DHBV DNA level” value ([2]; Day 28 (end of 4 weeks treatment)) was 5 ± 3* 10^3 units and the “Serum DHBV DNA level” value ([2]; Day 35 (one week after termination of treatment)) was 18 ± 16 10^3 units.

In the case of IGMESAGIHETTY [CMS016], the “B16 metastatic foci in the lung” value (B16 melanoma cells; 5 μg/kg/day i.p.) is reported as “did not show any sign of existence of B16 metastatic foci in the lung” and the “B16 metastatic foci in the lung” value (B16 melanoma cells; 500 μg/kg/day i.p.) is reported as “did not show any sign of existence of B16 metastatic foci in the lung”.

B1: IFN-γ: recombinant mouse interferon-γ, Beijing Biotech Inc.; positive control immunostimulant (protein, UniProt P01580 23-155, looked up)
Interferon gamma: HGTVIESLESLNNYFNSSGIDVEEKSLFLDIWRNWQKDGDMKILQSQIISFYLRLFEVLKDNQAISNNISVIESHLITTFFSNSKAKKDAFMSIAKFEVNNPQVQRQAFNELIRVVHQLLPESSLRKRKRSRC
B1 gave a Tumor weight (S180 sarcoma cells; [3]) of 0.96 ± 0.45 g, a Tumor inhibition index (S180 sarcoma cells; [3]) of 25.3% and a Survival days (L1210 leukemia; [3]) of 15.6 ± 2.2 days.
